Measurements: ChEMBL document CHEMBL1124814 (J Med Chem, 1990)
Positions of bridges follow the written chain, without caps; N, C: chain ends. Residues, ends and D or L forms follow the SMILES beside them.

How the values were obtained:
[1] = target: Mu-type opioid receptor (Cavia porcellus, UniProt P97266); assay: Binding affinity against Opioid receptor mu 1 in guinea pig brain homogenate using [3H]- PL-17 as radioligand; assay type: tissue-based
[2] = target: T1, Opioid receptors; mu/kappa/delta (Homo sapiens, UniProt P41145+P41143+P35372); details: Cavia porcellus; Ileum
T1 sequence (P35372 whole entry, looked up): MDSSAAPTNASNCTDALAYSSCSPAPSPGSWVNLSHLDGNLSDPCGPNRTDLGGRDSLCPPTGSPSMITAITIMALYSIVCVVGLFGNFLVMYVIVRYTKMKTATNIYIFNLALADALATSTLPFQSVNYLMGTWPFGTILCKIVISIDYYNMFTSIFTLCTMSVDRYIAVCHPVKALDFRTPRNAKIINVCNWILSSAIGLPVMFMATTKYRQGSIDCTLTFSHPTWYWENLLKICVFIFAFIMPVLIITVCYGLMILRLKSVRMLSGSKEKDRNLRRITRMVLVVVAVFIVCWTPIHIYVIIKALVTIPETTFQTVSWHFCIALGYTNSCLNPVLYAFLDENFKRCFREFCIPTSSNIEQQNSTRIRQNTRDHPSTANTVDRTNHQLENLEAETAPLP
T1 sequence (P41143 whole entry, looked up): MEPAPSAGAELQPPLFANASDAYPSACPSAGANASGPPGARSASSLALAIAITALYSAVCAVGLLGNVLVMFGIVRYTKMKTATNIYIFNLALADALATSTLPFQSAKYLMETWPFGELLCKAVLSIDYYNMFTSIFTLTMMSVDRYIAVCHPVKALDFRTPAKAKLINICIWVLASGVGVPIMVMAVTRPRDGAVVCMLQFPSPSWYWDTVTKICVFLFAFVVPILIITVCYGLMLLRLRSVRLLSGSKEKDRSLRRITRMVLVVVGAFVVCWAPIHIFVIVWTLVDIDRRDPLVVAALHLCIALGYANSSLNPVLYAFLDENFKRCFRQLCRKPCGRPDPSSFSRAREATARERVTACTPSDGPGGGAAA
T1 sequence (P41145 whole entry, looked up): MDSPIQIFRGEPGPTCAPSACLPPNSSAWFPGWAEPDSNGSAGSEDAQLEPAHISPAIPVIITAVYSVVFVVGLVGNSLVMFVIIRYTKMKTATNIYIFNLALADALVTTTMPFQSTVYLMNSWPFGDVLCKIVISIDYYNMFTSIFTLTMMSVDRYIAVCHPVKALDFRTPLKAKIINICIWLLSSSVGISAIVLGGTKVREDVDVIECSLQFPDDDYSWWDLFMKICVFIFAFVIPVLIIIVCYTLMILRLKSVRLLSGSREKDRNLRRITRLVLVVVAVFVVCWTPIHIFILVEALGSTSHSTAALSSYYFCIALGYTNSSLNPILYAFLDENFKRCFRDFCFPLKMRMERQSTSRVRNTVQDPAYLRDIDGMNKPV
Description: Opioid receptors antagonist activity in smooth-muscle tissue of guinea pig ileum (GPI) in presence of NLX

[3] = target: Kappa-type opioid receptor (Cavia porcellus, UniProt P41144); assay: Binding affinity against Opioid receptor kappa 1 in guinea pig brain homogenate using [3H]- U-69593 as radioligand; assay type: tissue-based
Sequence of Kappa-type opioid receptor (P41144 whole entry): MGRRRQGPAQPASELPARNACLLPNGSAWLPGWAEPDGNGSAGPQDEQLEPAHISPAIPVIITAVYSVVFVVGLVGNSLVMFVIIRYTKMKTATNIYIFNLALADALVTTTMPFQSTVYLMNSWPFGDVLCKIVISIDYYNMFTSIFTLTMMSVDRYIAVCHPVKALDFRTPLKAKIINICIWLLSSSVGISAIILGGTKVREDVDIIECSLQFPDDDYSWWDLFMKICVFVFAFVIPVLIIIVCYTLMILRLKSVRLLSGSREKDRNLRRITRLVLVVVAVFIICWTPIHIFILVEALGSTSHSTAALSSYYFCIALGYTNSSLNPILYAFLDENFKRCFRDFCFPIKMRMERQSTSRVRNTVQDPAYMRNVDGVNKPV

[4] = target: T2, Opioid receptor (Mus musculus) (UniProt P42866+P32300+P33534); assay: Opioid receptors antagonist activity in smooth-muscle tissue mouse vas deferens (MVD) in presence of NLX; assay type: functional, tissue-based
T2 sequence (P32300 whole entry, looked up): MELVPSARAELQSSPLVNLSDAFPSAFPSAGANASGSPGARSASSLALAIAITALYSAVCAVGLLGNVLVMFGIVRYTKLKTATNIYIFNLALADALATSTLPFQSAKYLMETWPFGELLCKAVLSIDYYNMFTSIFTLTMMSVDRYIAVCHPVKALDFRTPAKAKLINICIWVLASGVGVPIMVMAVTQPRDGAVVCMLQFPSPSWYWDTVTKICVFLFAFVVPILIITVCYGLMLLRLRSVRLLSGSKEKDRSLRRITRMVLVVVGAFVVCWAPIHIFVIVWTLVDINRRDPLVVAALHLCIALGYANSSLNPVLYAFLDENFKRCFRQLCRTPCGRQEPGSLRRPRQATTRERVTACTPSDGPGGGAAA
T2 sequence (P33534 whole entry, looked up): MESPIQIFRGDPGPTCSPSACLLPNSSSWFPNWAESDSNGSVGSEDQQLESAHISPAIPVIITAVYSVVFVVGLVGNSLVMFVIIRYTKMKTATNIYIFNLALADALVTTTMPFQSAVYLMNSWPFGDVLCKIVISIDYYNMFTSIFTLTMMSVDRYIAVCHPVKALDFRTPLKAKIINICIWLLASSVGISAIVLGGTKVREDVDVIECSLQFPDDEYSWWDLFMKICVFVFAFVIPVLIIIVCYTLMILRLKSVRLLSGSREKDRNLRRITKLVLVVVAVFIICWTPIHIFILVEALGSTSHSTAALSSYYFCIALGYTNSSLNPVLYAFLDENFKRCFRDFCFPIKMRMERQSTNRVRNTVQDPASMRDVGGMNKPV
T2 sequence (P42866 whole entry, looked up): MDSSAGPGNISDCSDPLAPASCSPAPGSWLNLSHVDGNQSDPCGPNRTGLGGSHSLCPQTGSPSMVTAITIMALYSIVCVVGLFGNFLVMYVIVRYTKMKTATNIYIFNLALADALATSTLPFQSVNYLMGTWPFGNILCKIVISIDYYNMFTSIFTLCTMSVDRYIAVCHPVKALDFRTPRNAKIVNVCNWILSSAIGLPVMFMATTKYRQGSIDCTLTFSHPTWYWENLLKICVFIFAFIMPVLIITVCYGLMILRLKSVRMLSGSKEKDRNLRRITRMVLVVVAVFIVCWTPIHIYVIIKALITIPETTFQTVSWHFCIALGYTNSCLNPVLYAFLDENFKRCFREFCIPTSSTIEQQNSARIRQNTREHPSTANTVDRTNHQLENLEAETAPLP

[5] = target: Opioid receptor (Mus musculus, UniProt P42866+P32300+P33534); assay: Opioid receptors antagonist activity in smooth-muscle tissue mouse vas deferens (MVD); assay type: functional, tissue-based
[6] = target: T1, Opioid receptors; mu/kappa/delta; assay: Opioid receptors antagonist activity in smooth-muscle tissue of guinea pig ileum (GPI); assay type: functional, tissue-based, Cavia porcellus; details: target entry is the homologue from another species
[7] = target: T1, Opioid receptors; mu/kappa/delta; details: Cavia porcellus; Ileum; remark: listed apart in the source
Description: Opioid receptors antagonist activity in smooth-muscle tissue of guinea pig ileum (GPI) in presence of CTAP

[8] = target: T2, Opioid receptor (Mus musculus); assay: Opioid receptors antagonist activity in smooth-muscle tissue mouse vas deferens (MVD) in presence of ICI; assay type: functional, tissue-based
[9] = target: T2, Opioid receptor (Mus musculus); assay: Opioid receptors antagonist activity in smooth-muscle tissue mouse vas deferens (MVD) in presence of CTAP; assay type: functional, tissue-based

Sequence of Mu-type opioid receptor (P97266 whole entry): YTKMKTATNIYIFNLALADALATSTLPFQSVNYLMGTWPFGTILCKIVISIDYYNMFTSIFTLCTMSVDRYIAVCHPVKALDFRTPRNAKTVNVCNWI

Compound	IC50 [1]	Ke [2]	IC50 [3]	Ke [4]	IC50 [5]	IC50 [6]	Ke [7]	Ke [8]	Ke [9]
CC[C@H](C)[C@H](NC(=O)[C@H](CCCN=C(N)N)NC(=O)[C@H](CCCN=C(N)N)NC(=O)[C@H](CC(C)C)NC(=O)[C@H](Cc1ccccc1)NC(=O)CNC(=O)CNC(=O)[C@@H](N)Cc1ccc(O)cc1)C(=O)N[C@@H](CCCN=C(N)N)C(=O)N1CCC[C@H]1C(=O)N[C@@H](CCCCN)C(=O)N[C@@H](CC(C)C)C(=O)N[C@@H](CCCCN)C(N)=O	1.29 nM	82 nM	0.114 nM	100 nM	7.8 nM	1.7 nM	2000 nM	–	–
CC(C)C[C@@H]1NC(=O)[C@H](CCCCN)NC(=O)[C@@H]2CCCN2C(=O)[C@H](CCCN=C(N)N)NC(=O)[C@H](NC(=O)[C@H](CCCN=C(N)N)NC(=O)[C@H](CCCN=C(N)N)NC(=O)[C@H](CC(C)C)NC(=O)[C@H](Cc2ccccc2)NC(=O)CNC(=O)CNC(=O)[C@@H](N)Cc2ccc(O)cc2)CSSC[C@@H](C(N)=O)NC1=O	–	32.3 nM	–	30.3 nM	24.5 nM	2.27 nM	–	667 nM	370 nM
CC[C@H](C)[C@H](NC(=O)[C@H](CCCNC(=N)N)NC(=O)[C@H](CCCNC(=N)N)NC(=O)[C@H](CC(C)C)NC(=O)[C@H](Cc1ccccc1)NC(=O)CNC(=O)CNC(=O)[C@@H](N)Cc1ccc(O)cc1)C(=O)N[C@@H](CCCNC(=N)N)C(=O)N1CCC[C@H]1C(=O)N[C@@H](CCCCN)C(=O)N[C@@H](CC(C)C)C(=O)N[C@@H](CCCCN)C(=O)N[C@@H](Cc1c[nH]c2ccccc12)C(=O)N[C@@H](CC(=O)O)C(=O)N[C@@H](CC(N)=O)C(=O)N[C@@H](CCC(N)=O)C(=O)O [DYNORPHIN A (1-17)]	–	–	0.231 nM	–	–	–	–	–	–
CC[C@H](C)[C@@H]1NC(=O)[C@H](CCCN=C(N)N)NC(=O)[C@H](CCCN=C(N)N)NC(=O)[C@@H](NC(=O)[C@H](Cc2ccccc2)NC(=O)CNC(=O)CNC(=O)[C@@H](N)Cc2ccc(O)cc2)CSSC[C@@H](C(N)=O)NC(=O)[C@@H]2CCCN2C(=O)[C@H](CCCN=C(N)N)NC1=O (H-YGGFCRRIRPC-NH2; disulfide 5-11)	0.027 nM	66.7 nM	0.285 nM	80 nM	421 nM	1080 nM	–	86.2 nM	2000 nM
C[C@H]1NC(=O)[C@H](CCCN=C(N)N)NC(=O)[C@H](CCCN=C(N)N)NC(=O)[C@@H](NC(=O)[C@H](Cc2ccccc2)NC(=O)CNC(=O)CNC(=O)[C@@H](N)Cc2ccc(O)cc2)CSSC[C@@H](C(N)=O)NC(=O)[C@@H]2CCCN2C(=O)[C@H](CCCN=C(N)N)NC1=O	–	–	–	–	1660 nM	4406 nM	50 nM	21.3 nM	500 nM
CC[C@H](C)[C@H](NC(=O)[C@H](CCCN=C(N)N)NC(=O)[C@H](CCCN=C(N)N)NC(=O)[C@H](CC(C)C)NC(=O)[C@H](Cc1ccccc1)NC(=O)CNC(=O)CNC(=O)[C@@H](N)Cc1ccc(O)cc1)C(=O)N[C@@H](CCCN=C(N)N)C(=O)N1CCC[C@H]1C(=O)N[C@@H](CCCCN)C(N)=O	1.08 nM	–	–	125 nM	204 nM	7.5 nM	–	625 nM	–
C[C@H]1NC(=O)[C@H](CCCNC(=N)N)NC(=O)[C@H](CCCNC(=N)N)NC(=O)[C@@H](NC(=O)[C@H](Cc2ccccc2)NC(=O)CNC(=O)CNC(=O)[C@@H](N)Cc2ccc(O)cc2)CSSC[C@@H](C(N)=O)NC(=O)[C@@H]2CCCN2C(=O)[C@H](CCCNC(=N)N)NC1=O	2.3 nM	–	0.391 nM	–	–	–	–	–	–
CC(C)C[C@@H]1NC(=O)[C@H](CCCCN)NC(=O)[C@@H]2CCCN2C(=O)[C@H](CCCN=C(N)N)NC(=O)[C@@H](NC(=O)[C@H](CCCN=C(N)N)NC(=O)[C@H](CCCN=C(N)N)NC(=O)[C@H](CC(C)C)NC(=O)[C@H](Cc2ccccc2)NC(=O)CNC(=O)CNC(=O)[C@@H](N)Cc2ccc(O)cc2)CSSC[C@@H](C(N)=O)NC1=O	0.986 nM	38.9 nM	0.074 nM	95.2 nM	20.1 nM	1.3 nM	–	156 nM	175 nM
CC(C)C[C@@H]1NC(=O)[C@H](CCCCN)NC(=O)[C@@H]2CCCN2C(=O)[C@H](CCCNC(=N)N)NC(=O)[C@H](NC(=O)[C@H](CCCNC(=N)N)NC(=O)[C@H](CCCNC(=N)N)NC(=O)[C@H](CC(C)C)NC(=O)[C@H](Cc2ccccc2)NC(=O)CNC(=O)CNC(=O)[C@@H](N)Cc2ccc(O)cc2)CSSC[C@@H](C(N)=O)NC1=O	10.3 nM	–	1.76 nM	–	–	–	–	–	–
CC(C)C[C@H](NC(=O)[C@H](Cc1ccccc1)NC(=O)CNC(=O)CNC(=O)[C@@H](N)Cc1ccc(O)cc1)C(=O)N[C@@H](CCCN=C(N)N)C(=O)N[C@@H](CCCN=C(N)N)C(=O)N[C@@H]1CSSC[C@H](C(N)=O)NC(=O)[C@H](CC(C)C)NC(=O)[C@H](CCCCN)NC(=O)[C@@H]2CCCN2C(=O)[C@H](CCCN=C(N)N)NC1=O	0.362 nM	233 nM	–	18.2 nM	19.5 nM	1.75 nM	–	1000 nM	1430 nM
